{"source": "patent US20160040128A1", "about": "“METHOD” (PCI BIOTECH AS, priority 2013, published 2016)", "key": {"[1]": {"system": "bone-marrow-derived murine DCs", "experiment": "In vitro MHC class-I antigen presentation: OVA-pulsed, Amphinex- and light-treated DCs co-cultured with OT-1 CD8 T cells, IFN-γ ELISA", "assay_type": "cell-based, mouse", "description": "The DCs were washed and illuminated for the indicated time intervals before adding 100,000 purified CD8 T cells from OT-1 mice. […] After washing, the DCs were illuminated for 15 seconds.\nThe antigen OVA (Sigma Aldrich, Buchs, Switzerland) and the photosensitiser Amphinex (TPCS2a, PCI Biotech, Lysaker, Norway) were incubated with DCs using petri dishes. Typically, DCs were pulsed for 2 h with OVA and Amphinex. The DCs were then collected and washed by centrifugation before re-suspension in medium and further incubation on petri dishes for 2 h in Amphinex- and OVA-free medium; this allows removal of Amphinex from the outer plasma membrane. The DCs were then washed, counted and plated in round-bottom 96-well plates (typically 100,000 DCs per well), and the cells were exposed to light (435 nm) using LumiSource® (PCI Biotech) for different time intervals. Sex-matched CD8-purified OT-1 cells were then added to the DC plates at 100,000 cells per well and incubated at 37° C. overnight. The secretion of IFN-γ into supernatants was measured using ELISA according to the protocol from eBioscience (Ready-SET-Go!®, Bender MedSystems, Vienna, Austria).\nAfter removing the photosensitiser and antigen by washing and incubation for another 2 hours, the DCs were transferred to 96-well plates at 100,000 cells per well and treated with light at different time-doses before admixing an equal number of purified OT-1 CD8 T cells. […] Of note, antigen presentation and IFN-γ secretion of soluble OVA was improved by Amphinex alone, but not by light alone (FIG. 1a). To further test the sensitivity of DCs to PCI treatment, equivalent assays were performed using a single light dose of 15 seconds, but a wide range of Amphinex doses (0.0005-0.5 μg/ml), namely 0.003, 0.006, 0.0125, 0.025, 0.05, 0.1 and 0.2 μg/ml."}, "[2]": {"system": "Bone-marrow derived murine DCs", "experiment": "PCI-induced apoptosis and cell death of DCs, Annexin-V / propidium iodide flow cytometry", "assay_type": "cell-based", "conditions": "0.2 μg/ml Amphinex, 435 nm light 1 to 10 minutes, 2 hours rest at 37° C.", "description": "The DCs were then washed and seeded into culture plates and treated with light for various time periods (minutes) as indicated. The cells were cultured for another 2 hours (or overnight) and the viability was analysed by flow cytometry after staining with Annexin-V and propidium iodide (PI). The results are illustrated as representative dotbiots (a) or summarised in histograms (b).\nThe DC viability was tested 2 hours after the PCI treatment by staining the cells with propidium iodide and Annexin-V to identify necrotic and apoptotic cells, respectively, which were analysed by flow cytometry (FACSCanto from BD Biosciences, San Jose, USA). The analysis was performed using the FlowJo 8.5.2 software from Tree Star, Inc. (Ashland, Oreg.). […] Cytokines were analysed by ELISA from supernatants of 24 hours cultures, and flow cytometry was done on cells after 48 hours incubation. […]\nTherefore in a series of experiments, we analysed cell death and apoptosis by flow cytometry after staining of cells with propidium iodide and fluorescence-labelled anti-Annexin-V. A concentration of 0.2 μg/ml Amphinex induced light-dose dependent apoptosis and cell death upon illumination with 435 nm light for 1 to 10 minutes (FIG. 2a); the DCs were rested at 37° C. for 2 hours after light treatment before staining and acquisition. […]"}, "DCs [3]": {"system": "DCs", "experiment": "Activation of DCs: cytokine secretion (TNF-α, IL-6, IL-12, IL-1β) by ELISA", "assay_type": "cell-based, mouse", "description": "(§1) The cells were then washed and cultured in Amphinex- and OVA-free medium for another 2 hours before being treated with Lumisource® light for 3 minutes. The DCs were then cultured overnight before collection of supernatants for analysis of the cytokines TNF-α (a), IL-6 (b), IL-12 (c) and IL-1β (d). To measure the expression of CD80 by flow cytometry, DCs were cultured with 0, 0.1 or 1 μg/ml Amphinex and 0 or 10 μg/ml OVA as indicated (e). The histograms are representative of triplicates and show cells that were gated on viable and CD11c-positive cells. Arrows indicate samples that were treated with light for 3 min.\n(§2) The DC viability was tested 2 hours after the PCI treatment by staining the cells with propidium iodide and Annexin-V to identify necrotic and apoptotic cells, respectively, which were analysed by flow cytometry (FACSCanto from BD Biosciences, San Jose, USA). The analysis was performed using the FlowJo 8.5.2 software from Tree Star, Inc. (Ashland, Oreg.). Activation of DCs was further tested by measuring the secretion of TNF-α, IL-6, IL-12 and IL-1β by ELISA (eBioscience) and the expression of MHC I, MHC II, CD40, CD80, CD83 and CD86 by flow cytometry. Briefly, the DCs were incubated for 2 hours with Amphinex or lipopolysaccharide E. coli clone 026:B6 (Sigma Aldrich), washed, incubated for another 2 hours in fresh medium, illuminated for 3 min with Lumisource® light, and incubated. Cytokines were analysed by ELISA from supernatants of 24 hours cultures, and flow cytometry was done on cells after 48 hours incubation. All FACS antibodies were purchased from BD Pharmingen (Basel, Switzerland) or from eBioscience.\nWe further tested the activation of DCs and their innate immune reactions after PCI treatment. Adjuvants and especially pathogen-associated molecular patterns (PAMPs) typically activate DCs and other antigen presenting cells via stimulation of pathogen recognition receptors such as Toll-like receptors, NOD-like receptors, C-type lectin and mannose receptors. Such activation then is typically characterised by secretion cytokines important for stimulation and regulation of further innate as well as adoptive immune responses. […] Although weak, the adjuvant effect with regard to IL-6 seemed light dependent, as IL-6 secretion was not increased by Amphinex or light alone, but only by their combination. However, the effect was much weaker than after stimulation of DCs with 1 μg/ml lipopolysaccharide (LPS). While stimulation of TNF-α and IL-6 secretion characterises the general adjuvant potential of a compound or a treatment, stimulation of IL-12 and IL-1β illustrates the potential to trigger Th1 T-cell responses and inflammasome, respectively."}, "DCs [4]": {"system": "DCs", "experiment": "Activation of DCs: surface marker expression by flow cytometry", "assay_type": "cell-based, mouse", "description": "as §1, §2\nDC constitutively expressed the co-stimulatory molecules CD80 and CD86 (FIG. 3e; CD80 only shown). […] The expression of CD40, MHC I and MHC II was not affected by Amphinex treatment (not shown)."}, "[5]": {"conditions": "PCI treatment: 1 μg/ml Amphinex plus 3 min light"}, "[6]": {"conditions": "PCI treatment: 1 μg/ml Amphinex plus 3 min light, measured after 22 hours incubation"}}}
{"substance": "Disulfonated tetraphenyl chlorin [Amphinex]", "values": [{"measurement": "immune responses (IFN-γ secretion), 0.05 μg/ml compared with 0.2 μg/ml Amphinex", "setting": "[1]; 0.05 vs 0.2 μg/ml Amphinex", "result": "stronger immune responses"}, {"measurement": "antigen presentation (IFN-γ secretion by OT-1 CD8 T cells)", "setting": "[1]; Amphinex 0.025 and 0.05 μg/ml, light 15 seconds", "result": "facilitated antigen presentation"}, {"measurement": "antigen presentation and IFN-γ secretion of soluble OVA", "setting": "[1]; Amphinex alone, without light", "result": "improved"}, {"measurement": "antigen presentation", "setting": "[1]; Amphinex combined with high light doses", "result": "clear detrimental effect"}, {"measurement": "IFN-γ secretion by OT-1 CD8 T cells", "setting": "[1]; Amphinex doses higher than 0.05 μg/ml, light 15 seconds", "result": "declined"}, {"measurement": "MHC-1 antigen presentation as measured by IFN-γ secretion", "setting": "[1]; DCs pulsed 2 h with OVA with 0.05 or 0.2 μg/ml Amphinex vs OVA only, IFN-γ after 24 hours", "result": "significantly increased"}, {"measurement": "amount of cells dying", "setting": "[2]", "result": "50-60%"}, {"measurement": "apoptotic cells", "setting": "[2]", "result": "approx. 20%"}, {"measurement": "IL-6 secretion", "setting": "DCs [3]; Amphinex alone, without light", "result": "not increased"}, {"measurement": "cytokine-stimulating (adjuvant) effect compared with 1 μg/ml lipopolysaccharide (LPS)", "setting": "DCs [3]; PCI treatment (Amphinex plus light) vs 1 μg/ml LPS", "result": "much weaker"}, {"measurement": "IL-1β secretion", "setting": "DCs [3]; [5]", "result": "neither were notably stimulated"}, {"measurement": "IL-12 secretion", "setting": "DCs [3]; [5]", "result": "neither were notably stimulated"}, {"measurement": "IL-6 secretion", "setting": "DCs [3]; [6]", "result": "weak stimulation"}, {"measurement": "TNF-α secretion", "setting": "DCs [3]; [6]", "result": "weak stimulation"}, {"measurement": "CD40 expression", "setting": "DCs [4]; Amphinex treatment", "result": "not affected"}, {"measurement": "MHC I expression", "setting": "DCs [4]; Amphinex treatment", "result": "not affected"}, {"measurement": "MHC II expression", "setting": "DCs [4]; Amphinex treatment", "result": "not affected"}, {"measurement": "CD80 expression", "setting": "DCs [4]; Amphinex-treated DCs also treated with light 3 min, with or without OVA, gated on viable CD11c-positive cells", "result": "down-regulation"}]}
